Test results reported in patent publication US5935969A, “Pyrido-thiopyrandoinazoles with antitumor activity” (University of Vermont, priority 1998, dated 1999).
Converted amounts (≈) assume the structure as drawn. Like-named read-outs stand apart in the source and are kept apart here.

Assays:
[1] = rat; cited from earlier work
[2] = W.H.O. grade; phase I and phase II clinical trials; cited from earlier work
[3] = humans; cited from earlier work
LoVo/Dx [4] = assay: MTT cytotoxicity, multidrug-resistant subline LoVo/DX; format: cell-based, human; settings: for IC50: Homo sapiens, read-out: IC50 LoVo/Dx (concentration causing 50% inhibition of tumor cells growth)
Protocol: (§1) The evaluation of the biological activity for the compounds of this invention was performed "in vitro" and "in vivo" following the protocols developed by the U.S. National Cancer Institute.
(§2) The evaluation of the "in vitro" cytotoxic activity of the compounds of the invention was performed using the following cell lines: a murine sarcoma (S-180) and its subline expressing multidrug resistance (S-180/A-10), a leukemia (L1210), a human colon adenocarcinoma cell line (LoVo) isolated from a metastatic nodule and its subline expressing multidrug resistance. This latter subline is resistant to a number of antitumor agents, among which are doxorubicin, VP-16 and vincristine.
The columns headed L1210, S180 LoVo and LoVo/Dx contain the IC50 values against said tumor cell lines, as above described. […]
(§3) CYTOTOXICITY ON LOVO AND LOVO/DX WAS DETERMINED BY MTT ASSAY FOLLOWING 1

LoVo = assay: MTT cytotoxicity, human colon adenocarcinoma LoVo; format: cell-based; settings: read-out: IC50 LoVo (concentration causing 50% inhibition of tumor cells growth)
Protocol: as §1, §2
(§4) The columns headed L1210, S180 LoVo and LoVo/Dx contain the IC50 values against said tumor cell lines, as above described.
as §3

L1210 = assay: MTT cytotoxicity, leukemia L1210; format: cell-based; settings: Mus musculus, MTT assay, read-out: IC50 L1210 (concentration causing 50% inhibition of tumor cells growth)
Protocol: as §1, §2, §4

S180 = assay: MTT cytotoxicity, murine sarcoma S-180; format: cell-based; settings: Mus musculus; murine sarcoma S-180, MTT assay; read-out: IC50 S180 (concentration causing 50% inhibition of tumor cells growth)
Protocol: as §1, §2, §4

LoVo/Dx [5] = settings: in words; cited from earlier work
[6] = tested on: cell histotypes developing resistance against doxorubicin mediated by overexpression of glycoprotein P; settings: MDR; cited from earlier work
[7] = cited from earlier work
[8] = in vivo; cited from earlier work
[9] = i.p., non-tumor bearing rats, equieffective antitumor dosages; cited from earlier work
[10] = tested on: advanced breast cancer, acute leukemia and lymphoma; settings: cited from earlier work
[11] = LoVo/Dx multidrug-resistant subline, MTT assay, following 1 hour of drug exposure
[12] = MTT assay, following 1 hour of drug exposure
[13] = in animals, versus mitoxantrone

SMILES	IC50 (L1210) [µg/mL]	IC50 (S180) [µg/mL]	IC50 (LoVo/Dx [4]; [11]) [µg/mL]	IC50 (LoVo; [12]) [µg/mL]	other results
O=C1c2c(O)cccc2-c2nn(CCNCCO)c3ccc(NCCNCCO)c1c23 [CI-941]	–	–	–	–	nephrotoxicity [1]: marked nephrotoxicity; leukopenia (dose limiting) [2]: grade 3 and 4; neutropenia (dose limiting) [2]: grade 4; cardiotoxicity [3]: irreversible cardiotoxicity; symptoms of cardiac failure or acute cardiac events [3]: no symptoms of cardiac failure or acute cardiac events; IC50 (LoVo/Dx [4]; LoVo/DX, 1 h): 44.5 µg/mL (≈ 105 µM); activity in the resistant cell line (LoVo/Dx [4]; LoVo/DX, in words): loses completely its activity; IC50 (LoVo; 1 h): 0.053 µg/mL (≈ 0.125 µM)
CN(C)CCn1nc2c3c(c([N+](=O)[O-])ccc31)Sc1ncccc1-2 [Example 1]	0.08 (≈ 0.234 µM)	0.17 (≈ 0.498 µM)	–	–	–
CN(C)CCn1nc2c3c(c([N+](=O)[O-])ccc31)Sc1cnccc1-2 [Example 3, N,N-dimethyl-5-nitro-2H-pyrido[4',3':5,6]thiopyrano[4,3,2-cd]indazole-2-ethanamine]	0.05 (≈ 0.146 µM)	0.14 (≈ 0.41 µM)	–	–	–
CN(C)CCn1nc2c3c(c([N+](=O)[O-])ccc31)Sc1ccncc1-2 [Example 4, N,N-dimethyl-5-nitro-2H-pyrido[3',4':5,6]thiopyranol[4,3,2cd]indazole-2-ethanamine]	0.00062 (≈ 0.00182 µM)	0.0032 (≈ 0.00937 µM)	–	–	–
CN(C)CCn1nc2c3c(c(N)ccc31)Sc1ccncc1-2 [Example 5, N,N-dimethyl-5-amino-2H-pyrido[3',4':5,6]thiopyrano[4,3,2-cd]indazole-2-ethanamine]	0.003 (≈ 0.00963 µM)	0.0066 (≈ 0.0212 µM)	0.027 (≈ 0.0867 µM)	0.016 (≈ 0.0514 µM)	–
CN(C)CCNc1ccc2c3c(nn2CCN(C)C)-c2cccnc2Sc13 [Example 6, N'-[2-[2-(dimethylamino)ethyl]-2H-pyrido[3',2':5,6]thiopyrano[4,3,2-cd]indazol-5-yl]--N,N-dimethyl-1,2-ethanediamine]	0.008 (≈ 0.0209 µM)	0.028 (≈ 0.0732 µM)	2.6 (≈ 6.8 µM)	2.4 (≈ 6.27 µM)	–
CN(C)CCn1nc2c3c(c(NCCN)ccc31)Sc1ncccc1-2 [Example 7, N'-[2-[2-(dimethylamino)lethyl]-2H-pyrido[3',2':5,6]thiopyrano[4,3,2-cd]indazol-5-yl]l-1,2-ethanediamine]	0.0125 (≈ 0.0353 µM)	0.058 (≈ 0.164 µM)	16.8 (≈ 47.4 µM)	0.027 (≈ 0.0762 µM)	–
CN(C)CCn1nc2c3c(c(NCCN)ccc31)Sc1ccncc1-2 [Example 8]	0.0016 (≈ 0.00451 µM)	0.0029 (≈ 0.00818 µM)	0.26 (≈ 0.733 µM)	0.008 (≈ 0.0226 µM)	–
COc1cc(C2c3cc4c(cc3C(OC3OC5COC(C)OC5C(O)C3O)C3COC(=O)C23)OCO4)cc(OC)c1O (stereo not shown) [VP-16]	–	–	–	–	resistance of the LoVo/DX subline (LoVo/Dx [5]): resistant
O=C1c2ccccc2C(=O)c2c(NCCNCCO)ccc(NCCNCCO)c21 [ametantrone, 1,4-bis[(2-(2-hydroxyethylamino)ethyl)amino]anthracene-9,10-dione]	–	–	–	–	cross-resistance to doxorubicin-resistant cell histotypes [6]: cross-resistance; cardiotoxicity relative to mitoxantrone [7, 13]: about 10 -fold less; potency relative to mitoxantrone [7, 13]: about 10 -fold less; myelodepressive toxicity [8]: remarkable myelodepressive toxicity
COc1cccc2c1C(=O)c1c(O)c3c(c(O)c1C2=O)C[C@@](O)(C(=O)CO)C[C@@H]3O[C@H]1C[C@H](N)[C@H](O)[C@H](C)O1 [doxorubicin, reference compound]	–	–	–	–	accumulation of doxorubicin in LoVo/DX (LoVo/Dx [5]): reduced accumulation; resistance of the LoVo/DX subline (LoVo/Dx [5]): resistant; IC50 (LoVo/Dx [4]; LoVo/DX, 1 h): 53.8 µg/mL (≈ 99 µM); IC50 (LoVo; 1 h): 0.58 µg/mL (≈ 1.07 µM)
CN(C)CCn1nc2c3c(c(NCCN)ccc31)Sc1cnccc1-2 [ex.9-cpd 30, N'-[2-[2-(dimethylamino)ethyl]-2H-pyrido[4',3':5,6]thiopyrano[4,3,2-cd]indazol-5-yl]-1,2-ethanediamine]	0.014 (≈ 0.0395 µM)	0.058 (≈ 0.164 µM)	–	–	–
CN(C)CCn1nc2c3c(c(NC(=O)CN)ccc31)Sc1ncccc1-2 [ex. 10-cpd 1, N'-[2-(2-dimethylamino)ethyl]-5-(2'-amino-acetylamino)-2H-pyrido[3',2':5,6]thiopyrano [4,3,2-cd]indazole]	0.03 (≈ 0.0814 µM)	0.22 (≈ 0.597 µM)	–	–	–
CN(C)CCn1nc2c3c(c(NC(=O)CN)ccc31)Sc1ccncc1-2 [ex. 10-cpd 2, N'-[2-(2-dimethylamino)ethyl]-5-(2'-amino-acetylamino)-2H-pyrido[3',4':5,6]thiopyrano [4,3,2-cd]indazole]	–	–	0.21 (≈ 0.57 µM)	0.04 (≈ 0.109 µM)	–
CCN(CC)CCn1nc2c3c(c([N+](=O)[O-])ccc31)Sc1ccncc1-2 [ex. 11-cpd 1, N,N-diethyl-5-nitro-2 H-pyrido[3',4': 5,6]thiopyrano[4,3,2-cd]indazole-2-ethanamine]	0.00061 (≈ 0.00165 µM)	0.0031 (≈ 0.00839 µM)	–	–	–
CCN(CC)CCn1nc2c3c(c([N+](=O)[O-])ccc31)Sc1ncccc1-2 [ex. 11-cpd 2, N,N-diethyl-5-nitro-2H-pyrido[3',2':5,6]thiopyrano[4,3,2-cd]indazole-2-ethanamine]	0.2 (≈ 0.541 µM)	0.22 (≈ 0.595 µM)	–	–	–
CCN(CC)CCn1nc2c3c(c(N)ccc31)Sc1ccncc1-2 [ex. 12-cpd 1, N,N-diethyl-5-amino-2H-pyrido[3',4':5,6]thiopyrano[4,3,2-cd]indazole-2-ethanamine]	0.0015 (≈ 0.00442 µM)	0.0031 (≈ 0.00913 µM)	0.094 (≈ 0.277 µM)	0.036 (≈ 0.106 µM)	–
O=C1c2c(O)ccc(O)c2C(=O)c2c(NCCNCCO)ccc(NCCNCCO)c21 [mitoxantrone, 5,8-dihydroxy-1,4-bis[(2-(2-hydroxyethylamino)ethyl)amino]anthracene-9,10-dione]	–	–	–	–	delayed toxicity [9]: a delayed toxicity is observed only with mitoxantrone; cardiotoxicity in comparison to doxorubicin ([7]; animal studies): diminished cardiotoxicity in comparison to doxorubicin; myelodepressive toxicity [8]: remarkable myelodepressive toxicity; IC50 (LoVo/Dx [4]; LoVo/DX, 1 h): 0.67 µg/mL (≈ 1.51 µM); IC50 (LoVo; 1 h): 0.024 µg/mL (≈ 0.054 µM); clinical activity ([10]; clinical trials, advanced breast cancer, acute leukemia and lymphoma): particularly promising activity; clinical cardiotoxicity ([10]; mostly in patients previously treated with doxorubicin): some clinical cardiotoxicity has been observed
CC[C@]1(O)C[C@H]2CN(CCc3c([nH]c4ccccc34)[C@@](C(=O)OC)(c3cc4c(cc3OC)N(C=O)[C@H]3[C@@](O)(C(=O)OC)[C@H](OC(C)=O)[C@]5(CC)C=CCN6CC[C@]43[C@@H]65)C2)C1 [vincristine]	–	–	–	–	resistance of the LoVo/DX subline (LoVo/Dx [5]): resistant
